For data set [1], the system named is middle cerebral artery occlusion (MCAO). The data set is described as follows: MCAO with 7 days of reperfusion, treatment started 2 h after reperfusion. It counts as in vivo, rat. The settings on record: 10 mg/kg twice daily 7 days from 2 h after reperfusion. The text has this: Adult male Wistar rats weighing 160-180 g were purchased from Charles River (Wilmington, Mass.), acclimatized to the new vivarium for 5-7 days and used for the surgery when they weighed 200-230 g. Rats were anesthetized using box induction with 5% isoflurane and then maintained on 0.5%-1.5% isoflurane in medical grade oxygen via a facemask. In order to assure consistent reduction of cerebral blood flow (CBF) throughout the procedure, we affixed a small hand-made adaptor for the Laser Doppler probe (Moor Instruments, Wilmington, Del.) to the surface of the skull. The center of the adapter was 5 mm lateral to the central fusion line and 2.5 mm posterior to bregma. […] Neurological deficits were scored according to a 4-score test and a tactile and/or proprioceptive limb-placing test as follows: 1) 4-score test (higher score for more severe neurological deficits): 0=no apparent deficit; 1=contralateral forelimb is consistently flexed during suspension by holding the tail; 2=decreasing grip ability on the contralateral forelimb while tail pulled; 3=spontaneous movement in all directions but circling to contralateral side when pulled by the tail; 4=spontaneous contralateral circling or depressed level of consciousness. […] The paw was pulled down and away from the platform edge, and the ability to retrieve and place the paw on the table surface upon sudden release was assessed. […]

For data set [2], the system named is p38MAPK. The experiment in a line: p38MAPK phosphorylation in microglia (Western blot). It counts as cell-based, mouse. To be noted: doxycycline 20 μM, TRAM-34 1 μM, FIG. 2D. As for the experimental part: Primary microglia cultures derived from newborn C57BL/6J mice were prepared from mixed glia cultures with the “shaking off” method described by Maezawa, I., et al.; (2006) FASEB J 20, 797-799. […] To obtain conditioned medium (CM) for treating neurons, microglia were first cultured in 24-well culture plates at a density of 1.3×10^5 cells/cm^2 for 24 hrs in DMEM with 10% fetal bovine serum (DMEM10). Cultures were washed extensively and changed to the Neurobasal medium with B27 supplement (NB/B27, Invitrogen) without serum and cultured for another 24 hrs. The NB/B27-based microglia CMs were collected, briefly centrifuged, and used immediately or frozen for future uses.
To obtain lysates, cells or tissues were washed with ice-cold PBS and incubated with a buffer containing 50 mmol/L Tris-HCl (pH 7.4), 150 mmol/L NaCl, 2% SDS, proteinase inhibitor cocktail (Sigma), and phosphatase inhibitor cocktail (Sigma). Lysates were briefly sonncated and cleared by centrifugation at 50,000 rpm for 10 min. Equivalent amounts of protein were analyzed by Tris/HCL gel electrophoresis. Proteins were transferred to polyvinylidene difluoride membranes and probed with antibodies. Visualization was performed using enhanced chemiluminescence (ECL, Amersham Pharmacia, Piscataway, N.J.).
The following primary antibodies (dilutions) were used: anti-p38MAPK (1:1000, Cell Signaling Technology, Boston, Mass.), anti-phospho-p38MAPK (1:1000, Cell Signaling Technology), anti-Synaptophysin (1:1000, Abcam), anti-PSD95 (1:1000, cell signaling), anti-GRIP 1 (1:1000, UpState), anti-MAP2 (1:1000, Chemicon), anti-acetylated α-tubulin (1:2000, Zymed), and anti-β-actin (1:3000, Sigma). Secondary antibodies were HRP-conjugated anti-rabbit, anti-goat, or anti-mouse antibody (1:3000 Amersham).
(In general: In western blotting, separated proteins are transferred to a membrane and probed.)

The subject of data set [3] is hippocampal neurons. The data set is described as follows: Indirect neurotoxicity of conditioned medium from AβO-treated microglia on hippocampal neurons. It counts as cell-based, mouse. To be noted: 25% CM, 24 hrs.
Experimental: Hippocampal neuronal cultures were prepared from newborn wild type C57BL/6J mice according to the method of Xiang et al (26). Neurons were cultured in NB/B27 at a density of 2.5×10^5 cells/well in 12-well plates or 8×10^5 cells/well in 6-well plates for at least 14 days before they were treated with microglia CM.
Hippocampal neurons were prepared as described above and were plated onto 96-well plate at a density of 6×10^4 cells/well and cultured for 14 days. CM from microglia cultures was added onto neurons with indicated dilutions, and cultures were incubated for 24 hrs.
For immunofluorescent staining of neurons, cultures were fixed in 4% paraformaldehyde and stained with anti-PSD95 (1:200, Cell Signaling), anti-MAP2 (1:500, Chemicon) and anti-acetylated α-tubulin (1:250, Zymed). […] Immunostained images were observed under a Nikon Eclipse E600 microscope and photographed by a digital camera (SPOT RTke, SPOT Diagnostics, Sterling Heights, Mich.).
For quantification of the PSD95-immunoreactive puncta along the dendrites, photomicrographs of PSD95 immunostained cultures were randomly taken from each culture condition. The images were transformed to 8 bit gray scale and analyzed with the Image J program. The number of puncta in each photomicrograph was counted and normalized by dendritic length. The photography and analysis were conducted in an investigator-blinded manner
Data set [4] has as its system microglia. The experiment in a line: Assay for nitric oxide (nitrite) in microglia conditioned medium. Type of data set: cell-based, mouse. To be noted: 24 hr.
Data set [5] can be described thus: Physiological parameters by I-STAT in venous blood of MCAO rats. It counts as in vivo, rat. The settings on record: After Reperfusion, ±SD.
The conditions of data set [6]: mice, previously determined; cited from earlier work.

As for `Clc1ccccc1C(c1ccccc1)(c1ccccc1)n1cccn1` [TRAM-34, 1-[(2-chlorophenyl)diphenylmethyl]-1H-pyrazole], the “amount of activated (ED1+) microglia/macrophages in infarcted hemisphere” value in data set [1] is listed as “reduced”. Further, the “mean infarct area, % of ipsolateral triphenyltetrazolium chloride positive hemisphere area” value in data set [1] (control 18.8±3.5%, mean±SEM, P=0.007) was determined as 6.6±1.9%. Also, the “LPS-induced p38MAPK phosphorylation” value in data set [2] (LPS 100 ng/ml, 30 minutes) was “no significant difference”. Also, the “AβO-induced p38MAPK phosphorylation” value in data set [2] (microglia treated 30 minutes) is “no significant difference”. Moreover, the “dendritic morphology of neurons after CM from AβO-treated microglia co-incubated with inhibitor” value in data set [3] is “did not alter the dendritic morphology”. Moreover, the “levels of Ac-TN, MAP2, PSD95, and GRIP1 after CM from AβO-treated microglia co-incubated with inhibitor” value in data set [3] (Western blot) is “did not cause significant decreases”. Besides, the “AβO-CM-induced reduction of PSD95-immunoreactive puncta” value in data set [3] (microglia co-treated with 20 μM doxycycline or 1 μM TRAM-34, FIG. 6D) is “prevented”. Also, the “microglia NO production, compound alone” value in data set [4] (without AβO) is “did not affect NO production”. Further, the “AβO-induced increase of microglia NO production” value in data set [4] (20 μM doxycycline, 1 μM TRAM-34, FIG. 2F) was “prevented”. For the same compound, in data set [5] (TRAM-34 10 mg/kg), the BUN is 12.8 ± 7.2 mg/dL, the Glucose was 179.2 ± 48.2 mg/dL and the “Na^+” value came out at 134.4 ± 2.3 mmol/L. In data set [5] (TRAM-34 40 mg/kg), the BUN was 22.2 ± 4.0 mg/dL, the Glucose turned out to be 171.8 ± 54.3 mg/dL, the “HCO3^−” value turned out to be 32.5 ± 5.7 mmol/L and the pH came to 7.4 ± 0.13. Moreover, the half-life in data set [6] is 1 h.

For orientation: half-life means how long it takes for the measured level to halve.

Source of the values: patent publication US20130281504A1, “Reduction of Microglia-Mediated Neurotoxicity by KCa3.1 Inhibition” (THE REGENTS OF THE UNIVERSITY OF CALIFORNIA, priority 2010, published 2013).
